These are literature values, as cited in patent publication US4259319A, “Antibiotic auromomycin, and process for production thereof” (Kanegafuchi Chemical Industry Company, Limited, priority 1977, dated 1981).

One data set relates to Gram-positive bacteria. The following applies: comparison substance.
The conditions of data set [1]: comparison substance.

On to neocarcinostatin, for which, in the data set with Gram-positive bacteria, the Antibacterial activity result is listed as “inhibiting only Grampositive bacteria”. In addition, the isoelectric point in data set [1] was 3.5 pH.
